Consider 11 molecules from patent publication US20230392124A1, “METHODS AND COMPOSITIONS FOR IMPROVING SC-BETA CELLS OR ENHANCING THEIR UTILITY” (Washington University, priority 2020, published 2023).

Common to all, as to type: cell-based, human
Assay [1] has as its system SC beta cell differentiation. In words: Other modifications to the differentiation protocol, differentiation markers. To be noted: for PDX1/NKX61 co expression: treatment during S4. The source says: (§1) Other Modifications with Benefits (See e.g., FIG. 90-FIG. 95). • Y and Blebbistatin treatment during stage 4 of differentiation • Reducing volume of media • Wnt modification—IWP2 treatment during s1d2-d4 • bFGF treatment during stage 1 • Betacellulin removal during S5 • Other compound treatments during Stage 6

In the next assay the test system is SC-beta cells. In words: Compound treatments during Stage 6 (s6d1-7), insulin secretion. Particulars: treatment during s6d1-7.
Description: as §1

The next assay has as its system SC-β cells. In words: Refining stage 6 ESFM: components on top of base media, GSIS stimulation index. Particulars: in ESFM, 20 mM; by increasing insulin secretion at low glucose. The protocol: Base Media • MCDB131 • 10% BSA • Glutamax • P/S • Glucose • Zn 10 μM
Treatment on Top of Base Media • 1-Trace A 1:1000 • 2-Trace B 1:1000 • 3-Trace C 1:1000 • 4-Heparin 10 μg/mL • 5-NEAA 1:100 • 6-Vitamin C 250 μM • 7-NaHCO320 mM • 8-Defined Lipid Mixture 1:1000 • 9-Defined Lipid Mixture 1:1000 • 10-Base • 11-S6 w/water dilution 1:100 • 12-S6 no water dilution
All samples had same total dilution of 1:100 with water to maintain same osmolarity amongst samples.

Assay [2] has as its system stem cells in SC-β cell protocol. In words: Cytoskeletal modulating compounds added for first 24 hours of stages of the SC-β cell protocol, gene expression. To be noted: added during stage 1, read at S2d1. The protocol:
Small molecules that influence the state of the cytoskeleton were added for first 24 hours of various stages of the SC-β cell protocol.

Another assay has as its system WS4^corr stage 6 cells. In words: ER stress study: thapsigargin treatment, static GSIS, real-time PCR and western blot. How it is done: (§2) For static GSIS, approximately 30 stage 6 clusters were placed in transwells (Corning), equilibrated for 1 hr in 2 mM glucose KRB (TABLE 6), and challenged with sequential 1-hr 2 and 20 mM KRB treatments. For dynamic GSIS, clusters were loaded into a cell chamber, perfused with buffer at 100 μL/min, and equilibrated in 2 mM glucose KRB for 90 min. The samples were then challenged for 12 min at 2 mM, 24 min at 20 mM, and 12 min at 2 mM glucose KRB, collecting effluent every 2-4 min. Human insulin was quantified with ELISA and data normalized to cell counts from Vi-Cell XR or DNA quantification using Quant-iT Picogreen dsDNA assay kit (Invitrogen).
(§3) Detection of phosphorylated and total eIF2α as performed by lysing cells in 1% Triton buffer (20 mM HEPES, pH 7.5, 150 mM NaCl, 1% Triton X-100, 10% glycerol (Sigma), 1 mM EDTA, 10 mM tetrasodium pyrophosphate (Sigma), 17.5 mM β-glycerophosphate (Sigma), PhosSTOP (Roche), and complete protease inhibitor cocktail (Roche). Detection of all other proteins was done by lysing cells in M-PER Mammalian Protein Extraction Reagent (Thermo Scientific) supplemented with cOmplete protease inhibitor cocktail. After 30 min incubation on ice, samples were centrifuged, supernatants collected, and protein-equivalent samples were loaded onto 4-20% Mini-PROTEAN TGX Precast Protein Gels (Bio-Rad) and transferred to an Immobilon-P PVDF Membrane (Millipore). The membrane was treated with 5% skimmed milk for 1 hr at RT and probed with the primary antibodies. The antibodies were detected using HRP-linked secondary antibodies. The density of each band was quantified using Image Lab software (Bio-Rad).
(§4) RNA was extracted with the RNeasy Mini Kit (Qiagen) with DNase treatment (Qiagen), cDNA was synthesized with the High Capacity cDNA Reverse Transcriptase Kit (Applied Biosystems using a thermocycler (Applied Biosystems), real-time PCR reactions were generated with PowerUp SYBR Green Master Mix (Applied Biosystems) using a StepOnePlus (Applied Biosystems), and data analyzed using ΔΔCt methodology. TBP and GUSB were used as normalization genes. Primer sequences used can be found in TABLE 8.
(§5) Cells were incubated for 48 hr with 10 μM Thapsigargin (EMD Chemicals), 30 mM glucose, or a cytokine mix including 500 ng/mL IFNγ (R&D Systems), 500 ng/mL TNFα (R&D Systems), and 100 ng/mL […] (R&D Systems).
On the technique in general: Quantitative PCR measures a nucleic acid by following its amplification.

In the next assay the test system is WS4^unedit stage 6 cells. The description is as above. How it is done: as §2, §3, §4, §5
The test system of a further assay is INS-mCherry+ cells. In words: mCherry/INS reporter cell line, β cell health. The text has this:
Stage 6 INS+/−mcherry SC-islets can be single cell dispersed, sorted for INS+ SC-β cells, and treated with a SERCA pump inhibitor (thapsigargin) to reduce insulin secretion for high throughput drug screening.

For the next assay, the system named is Stage 6 SC-Beta cells. In words: Compounds to improve SC-beta cells: 7 day culture, qPCR of 10 genes. To be noted: 1 μg/mL, 6 days, qPCR vs Control 1. How it is done:
Cultured 14 wells of 6-well plates containing Stage 6 SC-Beta cells differentiated in suspension by Punn. Two wells served as controls.
Each well was cultured in one of the following for 7 days*: • […] IFN Gamma • […] TNF Alpha • […] IL-1 Beta • Mixture of the above cytokines • 10% FBS • 10, 1, and 0.1 μM A83-01 • 10, 1, and 0.1 μM Alk5i Ill • 1 μg/mL Lefty A (*cultured for 6 days)
Ran qPCR and compared everything to Control 1 (had smallest Ct SD).

Setting [3] is: 10 μM Thapsigargin, 48 hr, static GSIS, WS4^corr stage 6 cells.

As to `Cc1ccc2c(c1)C(=O)C1(O)CCN(c3ccccc3)C1=N2` (stereo not drawn) [Blebbistatin], the PDX1/NKX61 co expression entry in assay [1] is reported as “Improves”.

As to `C=C1[C@@H](C)[C@H]2[C@H](Cc3ccccc3)NC(=O)[C@]23[C@H](OC(C)=O)/C=C/[C@@](C)(O)C(=O)[C@@H](C)C/C=C/[C@H]3[C@@H]1O` [CytoD], the insulin secretion entry with SC-beta cells was “increases”.

Turning to `OC[C@H]1OC(O)[C@H](O)[C@@H](O)[C@@H]1O` (stereo partly drawn) [High Glucoses], the insulin secretion result with SC-beta cells is listed as “increases”.

For the molecule `Cc1ccc2nc(NC(=O)CSc3nc4c(c(=O)n3-c3ccccc3)SCC4)sc2c1` [IWP2], the “PDX1 yield at S3” value in assay [1] (during Sd2-d4) was “promotes”.

`O=C([O-])O.[Na+]` [NAHCO3]: the “stimulation index (GSIS)” value in the assay on SC-β cells was “reduces stimulation index”.

Regarding `C[C@@H](N)[C@H]1CC[C@H](C(=O)Nc2ccncc2)CC1` [Y], in assay [1], the PDX1/NKX61 co expression result is recorded as “Improves”.

As for `CCCCCCCCCCCCC/C=C/[C@@H](O)[C@@H](N)COP(=O)(O)O` [s1p], in assay [2], the “expression of the mesoderm marker Brachyury T” value is reported as “greatly increases”.

On to `C/C=C(/C)C(=O)O[C@H]1C(C)=C2[C@H]([C@@H]1OC(=O)CCCCCCC)[C@@](C)(OC(C)=O)C[C@H](OC(=O)CCC)[C@@]1(O)[C@H]2OC(=O)[C@@]1(C)O` [thapsigargin], for which, in the assay on WS4^corr stage 6 cells (setting [3]), the “decrease of insulin secretion” value turned out to be 3.9±0.7 × and the glucose-responsiveness result is on record as “eliminating glucose-responsiveness”. For the same molecule, the known stress markers entry with WS4^corr stage 6 cells (real-time PCR and western blot, bulk stage 6 population, WS4^corr cells) is “increasing known stress markers”. For the same molecule, in the assay on WS4^unedit stage 6 cells (10 μM Thapsigargin, 48 hr, static GSIS, WS4^unedit stage 6 cells), the insulin secretion entry is “not affected”. The known stress markers result in the assay with WS4^unedit stage 6 cells (real-time PCR and western blot, bulk stage 6 population, WS4^unedit cells) is on record as “increasing known stress markers”. Besides, in the assay on INS-mCherry+ cells, the De-differentiation signatures entry was “De-differentiation signatures occur” and the “mCherry fluorescence (insulin expression)” value is reported as “reduces mCherry fluorescence”.

Regarding “bFGF: growth factor added during stage 1”, the differentiation result in assay [1] (treatment during Stage 1) is recorded as “improves differentiation”.

B1: Lefty A: factor added to stage 6 culture at 1 μg/mL (protein, UniProt O00292 77-366, looked up)
Left-right determination …: RFSQSFREVAGRFLASEASTHLLVFGMEQRLPPNSELVQAVLRLFQEPVPKAALHRHGRLSPRSAQARVTVEWLRVRDDGSNRTSLIDSRLVSVHESGWKAFDVTEAVNFWQQLSRPRQPLLLQVSVQREHLGPLASGAHKLVRFASQGAPAGLGEPQLELHTLDLRDYGAQGDCDPEAPMTEGTRCCRQEMYIDLQGMKWAKNWVLEPPGFLAYECVGTCQQPPEALAFNWPFLGPRQCIASETASLPMIVSIKEGGRTRPQVVSLPNMRVQKCSCASDGALVPRRLQP
As to B1, in the assay on Stage 6 SC-Beta cells, the NKX6-1 expression entry is on record as “slightly decreased” and the “genes with increased expression (IAPP, SIX2, CHGA, SIX3, G6PC2, MAF B)” value is 6/10.

B2: BC: Betacellulin, stage 5 factor (protein, UniProt P35070 32-111, looked up)
Betacellulin: DGNSTRSPETNGLLCGDPEENCAATTTQSKRKGHFSRCPKQYKHYCIKGRCRFVVAEQTPSCVCDEGYIGARCERVDLFY
modifications: Betacellulin
notes: Betacellulin, stage 5 factor
As for B2, the “requirement for Beta cell induction” value in assay [1] (removal during S5) was “not required”.
